This passage reports inhibition zone results from US11970466B1, “4-((5-(3-fluorophenyl)-4-phenyl-4H-1,2,4-triazol-3-ylthio)methyl)benzoic acid as an antimicrobial compound” (KING FAISAL UNIVERSITY, priority 2023, dated 2024).

Common to all, as to assay type: cell-based
The test system of assay [1] is Aspergillus flavus. The experiment in a line: Agar plate disc-diffusion, antifungal inhibition zone. To be noted: Sabouraud's dextrose agar, 72 hours. As for the experimental part: (§1) The agar plate disc-diffusion method was applied. […] The discs were then placed onto the surface of agar plates (nutrient agar for bacteria and Sabouraud's dextrose agar for fungi) seeded with the test organism. Each plate contained 15 mL of the agar medium, previously seeded with 0.2 mL of the broth culture of each organism pregrown for 18 hours. The plates were incubated at 37° C. for 48 hours, and 72 hours for fungi. The inhibition zones were measured in mm. Discs impregnated with DMSO were used as a control, and its inhibition zone was subtracted from the tested compound actual inhibition zone.
(In general: A growth-free zone around the sample is the usual read-out of agar diffusion tests.)

The subject of assay [2] is Bacillus Cereus. As to the kind of experiment: Agar plate disc-diffusion, antibacterial inhibition zone. To be noted: Bacillus Cereus (Gram positive), nutrient agar, 37° C., 48 hours. The protocol: as §1
Assay [3] concerns Pseudomonas aeruginosa. The description is as above. As to conditions: Pseudomonas aeruginosa (Gram negative), nutrient agar, 37° C., 48 hours. As for the experimental part:
as §1

For assay [4], the system named is Staphylococcus aureus. The assay is described as above. As to conditions: Staphylococcus aureus (Gram positive), nutrient agar, 37° C., 48 hours. As for the experimental part: as §1
Assay [5] has as its system Escherichia coli. The description is as above. As to conditions: Escherichia coli (Gram negative), nutrient agar, 37° C., 48 hours. The protocol:
(§2) The agar plate disc-diffusion method was applied. Sterilized filter papers (6 mm in diameter) were wetted with 10 μL of a solution of 4-((5-(3-fluorophenyl)-4-phenyl-4H-1,2,4-triazol-3-ylthio)methyl)benzoic acid (III) to be tested, containing 10 mg/mL in DMSO, and the discs were allowed to air dry. The discs were then placed onto the surface of agar plates (nutrient agar for bacteria and Sabouraud's dextrose agar for fungi) seeded with the test organism. Each plate contained 15 mL of the agar medium, previously seeded with 0.2 mL of the broth culture of each organism pregrown for 18 hours. The plates were incubated at 37° C. for 48 hours, and 72 hours for fungi. The inhibition zones were measured in mm. Discs impregnated with DMSO were used as a control, and its inhibition zone was subtracted from the tested compound actual inhibition zone.

Assay [6] has as its system Chrysosporium keratinophilum. As to the kind of experiment: Agar plate disc-diffusion, antifungal inhibition zone. As to conditions: Sabouraud's dextrose agar, 72 hours. The protocol:
as §2

[7] abbreviates: A = concentration of comp. = 10,000 μL.
The mark [8] stands for this setting: B = concentration of comp. = 30,000 μL.
The mark [9] stands for this setting: C = concentration of comp. = 50,000 μL.

As to `O=C(O)c1cn(C2CC2)c2cc(N3CCNCC3)c(F)cc2c1=O` [Cip., ciprofloxacin], the inhibition zone in assay [1] (setting [7]) came to 29 mm; in assay [1] (setting [8]) it was 30 mm; in assay [1] (setting [9]) it was 42 mm; in assay [2] (setting [7]), 29 mm; in assay [2] (setting [8]), 30 mm; in assay [2] (setting [9]), 42 mm. Also, the inhibition zone in assay [3] (setting [7]) amounted to 29 mm; in assay [3] (setting [8]) it was 30 mm; in assay [3] (setting [9]), 53 mm; in assay [4] (setting [7]) it was 43 mm; in assay [4] (setting [8]) it was 44 mm; in assay [4] (setting [9]) it was 53 mm. For the same molecule, the inhibition zone in assay [5] (setting [7]) is listed as 30 mm; in assay [5] (setting [8]) it was 39 mm; in assay [5] (setting [9]), 60 mm; in assay [6] (setting [7]) it was 29 mm; in assay [6] (setting [8]) it was 30 mm; in assay [6] (setting [9]), 53 mm.

In the case of `O=C(O)c1ccc(CSc2nnc(-c3cccc(F)c3)n2-c2ccccc2)cc1` [III, 4-((5-(3-fluorophenyl)-4-phenyl-4H-1,2,4-triazol-3-ylthio)methyl)benzoic acid], the inhibition zone in assay [1] (setting [7]) is given as 24 mm; in assay [1] (setting [8]) it was 26 mm; in assay [1] (setting [9]) it was 35 mm; in assay [2] (setting [7]) it was 26 mm; in assay [2] (setting [8]) it was 28 mm; in assay [2] (setting [9]) it was 40 mm. In addition, the inhibition zone in assay [3] (setting [7]) was found to be 22 mm; in assay [3] (setting [8]) it was 26 mm; in assay [3] (setting [9]) it was 37 mm; in assay [4] (setting [7]) it was 19 mm; in assay [4] (setting [8]), 25 mm; in assay [4] (setting [9]), 35 mm. For the same molecule, the inhibition zone is 28 mm in assay [5] (setting [7]); 36 mm in assay [5] (setting [8]); 50 mm in assay [5] (setting [9]); 23 mm in assay [6] (setting [7]); 27 mm in assay [6] (setting [8]); 41 mm in assay [6] (setting [9]).
